Measured values taken from paper doi:10.1101/2023.05.15.540887, “Comparative analysis of drug-like EP300/CREBBP acetyltransferase inhibitors” (bioRxiv, 2023).

Legend:
EP300 catalytic domain = biological target: T1, EP300 catalytic domain (Homo sapiens, UniProt Q09472); experiment: TR-FRET assay of EP300-catalyzed acetylation of a histone H3 peptide; format: biochemical; conditions: 50 nM H3 peptide and 200 μM acetyl-CoA
T1 construct: disrupt the activity of EP300 catalytic domain; purchased Enzo BML-SE451-0100
T1 sequence (Q09472 1287-1663 limits assumed): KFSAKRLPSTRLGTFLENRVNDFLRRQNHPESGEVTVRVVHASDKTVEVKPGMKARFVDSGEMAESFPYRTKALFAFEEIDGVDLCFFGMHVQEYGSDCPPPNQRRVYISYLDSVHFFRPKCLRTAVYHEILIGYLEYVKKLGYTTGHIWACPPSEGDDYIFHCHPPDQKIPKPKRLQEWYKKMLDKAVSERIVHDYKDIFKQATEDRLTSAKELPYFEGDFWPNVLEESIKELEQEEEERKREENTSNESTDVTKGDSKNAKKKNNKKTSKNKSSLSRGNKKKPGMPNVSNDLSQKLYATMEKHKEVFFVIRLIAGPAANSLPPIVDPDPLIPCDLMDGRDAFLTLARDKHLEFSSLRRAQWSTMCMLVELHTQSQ
Description: Reaction mixtures were incubated for 1 h prior to addition of Alexa Fluor 647-labeled anti-H3K9Ac antibody and Europium-labeled streptavidin.
Briefly, an enzyme mix was made consisting of EP300 (100 nM; Enzo BML-SE451-0100) in assay buffer (25 mM HEPES pH 7.5, 150 mM NaCl, 2 mM DTT, 0.0001% Tween-20, 0.1 mg/m acetylated bovine serum albumin). This enzyme mix (3 μL) was added to white solid-bottom 1536-well plates (Greiner 789175) using a BioRaptr 2.0 Flying Reagent Dispenser (Let’s Go Robotics). […] Plates were read using a PHERAstar FSX microplate reader with HTRF optical module (BMG LabTech) and normalized to no enzyme (negative) and DMSO (neutral) controls. Standard curves were generated through titration of peptide substrate and acetylated peptide [Lys(Ac)9]-Histone H3 (1-21; AnaSpec AS-64191) to benchmark activity. […] Replicate activity measurements in the presence of inhibitors were averaged and half-maximal inhibition values calculated from the nonlinear fit of dose-response data using GraphPad Prism 9.

[1] = HPLC analysis of photocaged inhibitor release (photodeprotection); format: physicochemical; conditions: 302 nm or 365 nm light, aqueous solution or buffer
Source text: One potential reason EP300/CREBBP acetyltransferase inhibitors are not actively being evaluated in clinical trials is on-target toxicity.[10] Thus, these molecules may benefit from strategies to direct them more specifically to malignant – as opposed to healthy – tissues. Light-activated drug release provides one potential approach.[38] […] Considering the studies above we wondered: could the high potency of the CPI-1612 scaffold enable conditional release of an active EP300/CREBBP inhibitor? To explore this, we prepared a photocaged CPI-1612 analogue (4) (Fig. 5a). […] Parent inhibitor 5 was synthesized based on the published route[40] and derivatized with nitrobenzyl chloroformate to produce the photocaged analogue 4 (Scheme S1). […] Cells were then incubated for 3 h, harvested, and assessed for changes in EP300/CREBBP-dependent H3K18Ac. […]
To assess the ability of 4 to undergo photodeprotection to form 5 in the presence of UV light, we analyzed model reactions by HPLC. […] To assess conversion of 4 to 5, irradiated reactions and controls were analyzed using an Agilent 1260 Infinity HPLC equipped with a Phenomenenex Kinetex C18 column (2.6 μm, 100 Angstrom, 100 × 4.6 mm inner diameter, H20-280322) and UV detector with monitoring at 280 nm. […]

[2] = system: EP300/CREBBP-dependent H3K18Ac in MCF-7 cells; experiment: Cellular photouncaging, H3K18Ac Western blot in MCF-7 cells; format: cell-based, human; conditions: MCF-7, 10 or 25 μM
Source text: One potential reason EP300/CREBBP acetyltransferase inhibitors are not actively being evaluated in clinical trials is on-target toxicity.[10] Thus, these molecules may benefit from strategies to direct them more specifically to malignant – as opposed to healthy – tissues. Light-activated drug release provides one potential approach.[38] […] Considering the studies above we wondered: could the high potency of the CPI-1612 scaffold enable conditional release of an active EP300/CREBBP inhibitor? To explore this, we prepared a photocaged CPI-1612 analogue (4) (Fig. 5a). […] Parent inhibitor 5 was synthesized based on the published route[40] and derivatized with nitrobenzyl chloroformate to produce the photocaged analogue 4 (Scheme S1). […] To test whether active EP300/CREBBP inhibitor release could be controlled by light, we incubated cells with […] (10 or 25 μM), washed to remove inhibitor in media, and irradiated them for 1 min at 302 nm (Fig. 5e). Cells were then incubated for 3 h, harvested, and assessed for changes in EP300/CREBBP-dependent H3K18Ac. […] Although beyond the scope of the current study, we envision targeted release of potent EP300/CREBBP inhibitors could find utility in malignancies already treated using phototherapy, such as head and neck cancers,[41] as well as valuable applications in basic science.[42] […]

[3] = parameters: method as in ref 40 = [40]; 40. Wilson J. E.; Brucelle F.; Levelle J. R. P300/CBP HAT inhibitors . WO2019161162A1 , 2019 .; conditions: patent literature; cited from earlier work

Row | Structure (SMILES) | decrease in EP300/CREBBP inhibitor potency of caged relative to uncaged analogue 5 (EP300 catalytic domain) | photodeprotection to 5 (HPLC reaction monitoring) [1] | change in H3K18Ac, treated and exposed to light (UV) ([2]; 302 nm 1 min, then 3 h) | change in H3K18Ac, treated only (no irradiation) ([2]; no UV) | in vivo antitumor activity [3]
1 | COc1cc(COC(=O)N(C[C@@H](C)c2ccc(C#N)cc2)C(C(=O)Nc2ccc(-c3cnn(CC(=O)N4CCCC4)c3)cn2)c2ccccc2)c([N+](=O)[O-])cc1OC (some centres unmarked) [Compound 4] | ~ 50 fold | facile conversion of 4 to 5 | clear decreases in H3K18Ac | no such effect | –
2 | C[C@H](CNC(C(=O)Nc1ccc(-c2cnn(CC(=O)N3CCCC3)c2)cn1)c1ccccc1)c1ccc(C#N)cc1 (some centres unmarked) [Compound 5] | – | – | – | – | potent in vivo antitumor activity
